Activity calls are given as the source filed them. The rule behind the calls is not given here. Residues, ends and D or L forms follow the SMILES beside them.

Data set [1] concerns Neutrophil. In words: Induction of chemotaxis in BALB/c mouse neutrophils assessed as increase in ratio of cell polarization at 100 nM measured for 15 mins by Zigmond-chamber based microscopy (reference value: 14.6 %). It is filed as functional. Particulars: 0.25 h.
Data set [2] relates to Neutrophil. In words: Induction of ROS production in BALB/c mouse neutrophils at 100 nM incubated for 2 hrs by DCFH-DA staining based analysis. It is filed as functional, cell-based.
Data set [3] in a line: Drug uptake in Aprepitant-treated BALB/c mouse neutrophils at 20 uM incubated for 30 mins by flow cytometry. It is filed as ADME, cell-based. Particulars: neutrophil, 0.5 h.
Data set [4] is described as follows: Drug uptake in BALB/c mouse neutrophils by flow cytometry. The class given is ADME, cell-based. The note with it: neutrophil, dose 2.5-40 µM.
The nature of data set [5]: Drug uptake in mouse RAW264.7 cells by flow cytometry. The note with it: dose 2.5-40 µM. It is filed as ADME, cell-based.
A short description of data set [6]: Drug uptake in Aprepitant-treated mouse RAW264.7 cells at 20 uM incubated for 30 mins by flow cytometry. It is filed as ADME, cell-based. The note with it: raw264.7, 0.5 h.
Data set [7] concerns HaCaT. Kind of data set: Drug uptake in human HaCaT cells incubated for 30 mins by flow cytometry. The class given is functional, cell-based. The note with it: dose 5-20 µM.
Data set [8] has as its system HaCaT. Kind of data set: Drug uptake in Aprepitant-treated human HaCaT cells 5 to 20 uM incubated for 30 mins by flow cytometry. Particulars: dose 5-20 µM. It is filed as functional, cell-based.
Data set [9] is described as follows: Drug uptake in HUVEC cells incubated for 30 mins by flow cytometry. It is filed as ADME, cell-based. The note with it: human, 0.5 h, dose 5-20 µM.
Data set [10] can be described thus: Drug uptake in Aprepitant-treated HUVEC cells at 5 to 20 uM incubated for 30 mins by flow cytometry. It is filed as ADME, cell-based. The note with it: human, 0.5 h, dose 5-20 µM.

For the compound `CSCC[C@H](NC=O)C(=O)N[C@@H](CC(C)C)C(=O)N[C@@H](Cc1ccccc1)C(=O)O`, in the data set with Neutrophil [1], the Activity is given as 56.3%.
On to `CCCCCCCCCCCCCC(=O)O[C@@H]1[C@@H](C)[C@]2(O)[C@@H](C=C(CO)C[C@]3(O)C(=O)C(C)=C[C@@H]23)[C@@H]2C(C)(C)[C@]12OC(C)=O`, for which, in the data set on Neutrophil [2], the result was Active.
Regarding `CSCC[C@H](NC(=O)[C@H](CC(C)C)NC(=O)CNC(=O)[C@H](Cc1ccc(O)cc1)NC(=O)[C@H](Cc1ccccc1)NC(=O)[C@H](CCCNC(=N)N)NC(=O)[C@H](CC(=O)O)NC(=O)[C@@H]1CCCN1C(=O)[C@H](CC(N)=O)NC(=O)[C@@H]1CCCN1C(=O)[C@H](CCCCN)NC(=S)Nc1ccc(-c2c3ccc(=O)cc-3oc3cc(O)ccc23)c(C(=O)O)c1)C(N)=O` (HELM PEPTIDE1{[O=C(O)c1cc(NC(=S)[*:2])ccc1-c1c2ccc(=O)cc-2oc2cc(O)ccc12].K.P.N.P.D.R.F.Y.G.L.M.[am]}$$$$V2.0), the Drug uptake result was “Not Active” in [3]; “Dose-Dependent Effect” in data set [4]; “Dose-Dependent Effect” in data set [5]; “Not Active” in data set [6]; “Dose-Dependent Effect” in the data set with HaCaT [7]; “Dose-Dependent Effect” in [9]. Moreover, the Drug uptake result in data set [10] was “Not Active”. For the same compound, the Drug uptake result in the data set on HaCaT [8] is “inactive”.

The values are drawn from ChEMBL document CHEMBL5375968, “Peptide TK-HR from the Skin of Chinese Folk Medicine Frog Hoplobatrachus Rugulosus Accelerates Wound Healing via the Activation of the Neurokinin-1 Receptor” (J Med Chem, 2023).
